# Reference: patent US6420330B1, “Use of quaternary carboxylic acid alkanolamine ester salts as microbicide agents” (Cognis Deutschland GmbH, priority 1997, dated 2002)
# Legend:
# Assay in all cases: DGHM suspension test, other bacteria and fungi
# Format in all cases: cell-based
# [1] = system: Escherichia coli
# Protocol: (§1) The effectiveness of the compound to be tested was determined by the suspension test in accordance with the guidelines of the Deutsche Gesellschaft for Hygiene and Mikrobiologie (DGHM). Test solutions containing quatemary carboxylic acid alkanolamine ester salts in the quantities shown in the Tables of 50, 100, 200, 400 and 800 mg/l were prepared using water with a hardness of 17° dH and optionally isopropanol. At room temperatures, quantities of 0.1 ml test germ suspension were pipetted into test tubes containing 10 ml of the test solutions described above and mixed. After various contact times of 5, 15, 30 and 60 minutes, 1 ml of material was taken from the test tubes by pipette and transferred to 9 ml inactivator solution (inactivators: 3.0% Tween, 0.3% lecithin, 0.1% histidine). After in activation for at least 5 and at most 30 minutes, the living germ count was determined by plating out onto casein peptone-soybean flour peptone (CaSo)-agar plates. Using a spiral plater, the inactivating mixture was directly plated out onto CaSo-agar. The samples were incubated for 24 to 72 hours at 37° C. and macroscopically evaluated for growth. The destruction time or the residual germ count was determined in this way. The germ count of an unchallenged water control is related to the germ count of the inactivated test solution taking the dilution into account. The higher the value, the better the microbicidal effect. The symbol < means that the logarithmic reductuon factor is below the indicated value or, in the case of the symbol >, above the indicated value. The abbreviation CU stands for “concentration used”. Methyl triethanolammonium dioctanoic acid ester methosulfate was tested as in A) against the bacteria
# [2] = system: Trichophyton mentagrophytes
# Protocol: as §1
# [3] = system: Microsporum gypseum
# Protocol: as §1
# [4] = system: Enterococcus faecium
# Protocol: as §1
# [5] = system: Salmonella enteritidis
# Protocol: as §1
smiles,measurement,setting,value
"CCCCCCCC(=O)OCC[N+](C)(CCO)CCOC(=O)CCCCCCC.COS(=O)(=O)[O-] [Example 11, Methyl triethanolammonium dioctanoic acid ester methosulfate]",logarithmic reduction rate,"[1]; 50 ppm, 5 Mins.",4.12
same,logarithmic reduction rate,"[1]; 50 ppm, 15 Mins.",>5.62
same,logarithmic reduction rate,"[1]; 50 ppm, 60 Mins.",>5.76
same,logarithmic reduction rate,"[1]; 100 ppm, 5 Mins.",>5.58
same,logarithmic reduction rate,"[1]; 100 ppm, 15 Mins.",>5.62
same,logarithmic reduction rate,"[1]; 100 ppm, 60 Mins.",>5.76
same,logarithmic reduction rate,"[1]; 200 ppm, 5 Mins.",>5.58
same,logarithmic reduction rate,"[1]; 200 ppm, 15 Mins.",>5.62
same,logarithmic reduction rate,"[1]; 200 ppm, 60 Mins.",>5.76
same,logarithmic reduction rate,"[1]; 400 ppm, 5 Mins.",>5.58
same,logarithmic reduction rate,"[1]; 400 ppm, 15 Mins.",>5.62
same,logarithmic reduction rate,"[1]; 400 ppm, 60 Mins.",>5.76
same,logarithmic reduction rate,"[2]; 50 ppm, 5 Mins.",0.34
same,logarithmic reduction rate,"[2]; 50 ppm, 15 Mins.",0.95
same,logarithmic reduction rate,"[2]; 50 ppm, 60 Mins.",2.04
same,logarithmic reduction rate,"[2]; 100 ppm, 5 Mins.",0.38
same,logarithmic reduction rate,"[2]; 100 ppm, 15 Mins.",0.95
same,logarithmic reduction rate,"[2]; 100 ppm, 60 Mins.",2.05
same,logarithmic reduction rate,"[2]; 200 ppm, 5 Mins.",0.28
same,logarithmic reduction rate,"[2]; 200 ppm, 15 Mins.",0.92
same,logarithmic reduction rate,"[2]; 200 ppm, 60 Mins.",2.16
same,logarithmic reduction rate,"[2]; 400 ppm, 5 Mins.",0.35
same,logarithmic reduction rate,"[2]; 400 ppm, 15 Mins.",0.89
same,logarithmic reduction rate,"[2]; 400 ppm, 60 Mins.",2.29
same,destruction of Trichophyton mentagrophytes,[2]; long contact time (60 minutes),around 2 powers of ten
same,logarithmic reduction rate,"[3]; 50 ppm, 5 Mins.",>3.52
same,logarithmic reduction rate,"[3]; 50 ppm, 15 Mins.",>3.58
same,logarithmic reduction rate,"[3]; 50 ppm, 60 Mins.",>3.62
same,logarithmic reduction rate,"[3]; 100 ppm, 5 Mins.",>3.52
same,logarithmic reduction rate,"[3]; 100 ppm, 15 Mins.",>3.58
same,logarithmic reduction rate,"[3]; 100 ppm, 60 Mins.",>3.62
same,logarithmic reduction rate,"[3]; 200 ppm, 5 Mins.",>3.52
same,logarithmic reduction rate,"[3]; 200 ppm, 15 Mins.",>3.58
same,logarithmic reduction rate,"[3]; 200 ppm, 60 Mins.",>3.62
same,logarithmic reduction rate,"[3]; 400 ppm, 5 Mins.",>3.52
same,logarithmic reduction rate,"[3]; 400 ppm, 15 Mins.",>3.58
same,logarithmic reduction rate,"[3]; 400 ppm, 60 Mins.",>3.62
same,killing of the fungus Microsporum gypseum,"[3]; concentration of 50 mg/l, shortest contact time",almost completely killed off
same,logarithmic reduction rate,"[4]; 50 ppm, 5 Mins.",>6.3
same,logarithmic reduction rate,"[4]; 50 ppm, 15 Mins.",>5.88
same,logarithmic reduction rate,"[4]; 50 ppm, 60 Mins.",>5.96
same,logarithmic reduction rate,"[4]; 100 ppm, 5 Mins.",>6.3
same,logarithmic reduction rate,"[4]; 100 ppm, 15 Mins.",>5.88
same,logarithmic reduction rate,"[4]; 100 ppm, 60 Mins.",>5.96
same,logarithmic reduction rate,"[4]; 200 ppm, 5 Mins.",>6.3
same,logarithmic reduction rate,"[4]; 200 ppm, 15 Mins.",>5.88
same,logarithmic reduction rate,"[4]; 200 ppm, 60 Mins.",>5.96
same,logarithmic reduction rate,"[4]; 400 ppm, 5 Mins.",>6.3
same,logarithmic reduction rate,"[4]; 400 ppm, 15 Mins.",>5.88
same,logarithmic reduction rate,"[4]; 400 ppm, 60 Mins.",>5.96
same,logarithmic reduction rate,"[5]; 50 ppm, 5 Mins.",<1.8
same,logarithmic reduction rate,"[5]; 50 ppm, 15 Mins.",3.29
same,logarithmic reduction rate,"[5]; 50 ppm, 60 Mins.",3.67
same,logarithmic reduction rate,"[5]; 100 ppm, 5 Mins.",3.96
same,logarithmic reduction rate,"[5]; 100 ppm, 15 Mins.",5.12
same,logarithmic reduction rate,"[5]; 100 ppm, 60 Mins.",>5.76
same,logarithmic reduction rate,"[5]; 200 ppm, 5 Mins.",4.88
same,logarithmic reduction rate,"[5]; 200 ppm, 15 Mins.",>5.77
same,logarithmic reduction rate,"[5]; 200 ppm, 60 Mins.",>5.76
same,logarithmic reduction rate,"[5]; 400 ppm, 5 Mins.",>5.8
same,logarithmic reduction rate,"[5]; 400 ppm, 15 Mins.",>5.72
same,logarithmic reduction rate,"[5]; 400 ppm, 60 Mins.",>5.76
